Results reported in DBAASP.
In brackets after ≈: the same amount, converted by molar mass. Several values for one entry are separate records, joined by “and”; a condition that tells them apart may be missing. Identical values can stand only once.

What was measured:
Assay in all cases: ≥ marks a high value that may be exact or a test limit, other limits are often not marked, values filed in µg/mL are converted to µM
[1] = tested on: Pseudomonas aeruginosa BB2013-100
[2] = tested on: Escherichia coli ATCC 25922
Escherichia coli JW55034 = tested on: Escherichia coli JW55034
[3] = tested on: Acinetobacter baumannii Josh 28
[4] = tested on: Enterobacter cloacae BB2013-32
[5] = tested on: Pseudomonas aeruginosa ATCC 27853
Escherichia coli BW25113 = tested on: Escherichia coli BW25113
[6] = tested on: Escherichia coli ARLG-1012
[7] = tested on: Escherichia coli BB2013-30
[8] = tested on: Pseudomonas aeruginosa J4228
[9] = tested on: Acinetobacter baumannii Josh 230
[10] = tested on: Klebsiella pneumoniae J3702
[11] = tested on: Enterobacter cloacae St. L P23
[12] = tested on: Enterobacter cloacae BB2012-181
[13] = tested on: Enterobacter asburiae St. L P23
[14] = tested on: Klebsiella pneumoniae Oschner KP-1
[15] = tested on: Klebsiella pneumoniae BB2009-209
[16] = tested on: Klebsiella aerogenes St. L P63
[17] = tested on: Staphylococcus aureus ATCC 29213
[18] = tested on: Staphylococcus aureus ATCC 43300
[19] = tested on: Staphylococcus epidermidis ATCC 12228
[20] = tested on: Salmonella enterica subsp. enterica serovar Pullorum C79-13
[21] = tested on: Lacticaseibacillus rhamnosus 1.9021
[22] = tested on: Lacticaseibacillus rhamnosus 1.0936
[23] = tested on: Salmonella enterica subsp. enterica serovar Typhimurium ATCC 14028
[24] = tested on: Lacticaseibacillus rhamnosus 1.0911
[25] = tested on: Lacticaseibacillus rhamnosus 8014
[26] = tested on: Salmonella enterica subsp. enterica serovar Choleraesuis CVCC 503
Escherichia coli K88 = tested on: Escherichia coli K88
[27] = tested on: Escherichia coli O157:H7 CICC 21530
[28] = tested on: Pseudomonas aeruginosa PAO1
[29] = tested on: Streptococcus agalactiae BNCC 185941
[30] = tested on: Legionella pneumophila Lens
Micrococcus luteus A270 = tested on: Micrococcus luteus A270
[31] = tested on: Pseudomonas aeruginosa PA14
[32] = tested on: Escherichia coli DH5alpha
[33] = tested on: Escherichia coli K12 MG1655

Compound: CC[C@H](C)[C@H](NC(=O)CN)C(=O)N[C@@H](CCCCN)C(=O)N[C@H](C(=O)N[C@@H](CCCN=C(N)N)C(=O)N[C@@H](CCCCN)C(=O)N[C@@H](CC(C)C)C(=O)N[C@@H](Cc1ccccc1)C(=O)N[C@@H](CCCCN)C(=O)N[C@@H](CCCCN)C(=O)N[C@@H](CC(C)C)C(=O)N[C@@H](CC(C)C)C(=O)N[C@@H](CCCN=C(N)N)C(N)=O)[C@@H](C)CC [GIKIRKLFKKLLR]
- MIC [1]: 19.8 µM (≈ 32 µg/mL)
- MIC [2]: 2.74 µM and 5.48 µM
- MIC (Escherichia coli JW55034): 4.96 µM (≈ 8 µg/mL)
- MIC [3]: 2.48 µM (≈ 4 µg/mL)
- MIC [4]: 19.8 µM (≈ 32 µg/mL)
- MIC [5]: 2.48 µM (≈ 4 µg/mL)
- MIC (Escherichia coli BW25113): 4.96 µM (≈ 8 µg/mL)
- MIC [6]: 4.96 µM (≈ 8 µg/mL)
- MIC [7]: 9.92 µM (≈ 16 µg/mL)
- MIC [8]: 4.96 µM (≈ 8 µg/mL)
- MIC [9]: 9.92 µM (≈ 16 µg/mL)
- MIC [10]: 19.8 µM (≈ 32 µg/mL)
- MIC [11]: 19.8 µM (≈ 32 µg/mL)
- MIC [12]: 19.8 µM (≈ 32 µg/mL)
- MIC [13]: 19.8 µM (≈ 32 µg/mL)
- MIC [14]: 19.8 µM (≈ 32 µg/mL)
- MIC [15]: 19.8 µM (≈ 32 µg/mL)
- MIC [16]: 19.8 µM (≈ 32 µg/mL)

Compound: CC(C)C[C@H](NC(=O)CNC(=O)[C@H](CC(C)C)NC(=O)[C@H](CS)NC(=O)[C@H](CC(C)C)NC(=O)CNC(=O)[C@H](CC(C)C)NC(=O)[C@H](CCCCN)NC(=O)[C@@H](N)CCCCN)C(=O)N[C@@H](CCCCN)C(=O)N[C@@H](CCCCN)C(N)=O [KKLGLCLGLKK]
- MIC [17]: 128 µM (≈ 154 µg/mL)
- MIC [18]: 64 µM (≈ 76.8 µg/mL)
- MIC [19]: 128 µM (≈ 154 µg/mL)
- MIC [2]: 32 µM and 64 µM
- MIC [20]: 8 µM (≈ 9.6 µg/mL)
- MIC [21]: ≥ 32 µM
- MIC [22]: ≥ 128 µM
- MIC [23]: 64 µM (≈ 76.8 µg/mL)
- MIC [5]: 64 µM (≈ 76.8 µg/mL)
- MIC [24]: 16 µM (≈ 19.2 µg/mL)
- MIC [25]: ≥ 64 µM
- MIC [26]: ≥ 64 µM
- MIC (Escherichia coli K88): 16 µM (≈ 19.2 µg/mL)
- MIC [27]: 16 µM (≈ 19.2 µg/mL)
- MIC [28]: 32 µM (≈ 38.4 µg/mL)
- MIC [29]: ≥ 128 µM

Compound: CC[C@H](C)[C@H](NC(=O)[C@H](CC(C)C)NC(=O)CNC(=O)[C@H](CCCCN)NC(=O)[C@@H](NC(=O)[C@@H](NC(=O)[C@H](CCC(=O)O)NC(=O)[C@H](Cc1ccccc1)NC(=O)[C@H](Cc1ccccc1)NC(=O)[C@H](CCCCN)NC(=O)[C@H](C)NC(=O)[C@@H](NC(=O)[C@@H](NC(=O)[C@H](CC(=O)O)NC(=O)[C@H](C)NC(=O)[C@@H](N)CCSC)C(C)C)[C@@H](C)CC)[C@@H](C)CC)C(C)C)C(=O)N[C@@H](CC(=O)O)C(=O)N[C@@H](CCC(N)=O)C(=O)N[C@@H](Cc1ccccc1)C(=O)N[C@H](C(=O)N[C@@H](CCC(N)=O)C(=O)N[C@@H](CCCCN)C(=O)O)[C@@H](C)O [MADVIAKFFEIVKGLIDQFTQK]
- MIC [30]: 2.44 µM (≈ 6.2 µg/mL)

Compound: CC(C)C[C@H](NC(=O)CNC(=O)[C@@H](NC(=O)[C@H](CC(C)C)NC(=O)[C@H](C)NC(=O)[C@@H](N)C(C)C)[C@@H](C)O)C(=O)N[C@H](C(=O)N[C@H](C(=O)N[C@@H](C)C(=O)N[C@@H](CCC(=O)O)C(=O)N[C@@H](Cc1ccc(O)cc1)C(=O)N[C@@H](Cc1ccccc1)C(=O)N[C@@H](CCCN=C(N)N)C(=O)O)C(C)C)[C@@H](C)O [VALTGLTVAEYFR]
- MIC [17]: 3.9 µM (≈ 5.61 µg/mL)
- MIC (Micrococcus luteus A270): 1.9 µM (≈ 2.74 µg/mL)
- MIC [31]: 15.6 µM (≈ 22.5 µg/mL)
- MIC [32]: 3.9 µM (≈ 5.61 µg/mL)
- MIC [5]: 7.8 µM (≈ 11.2 µg/mL)
- MIC [33]: 7.8 µM (≈ 11.2 µg/mL)
